The text below walks through data of patent publication US20100190743A1, “Method and Composition for Treatment of a Mucosal Tissue Disorder” (Chitogenics, Inc., priority 2005, published 2010).

One test deals with interstitial cystitis. Particulars: cited from earlier work.
Test [1] deals with rat model of Interstitial Cystitis. As to the kind of experiment: Efficacy of sNOCC in reducing inflammation in a rat model of interstitial cystitis (Example 2), bladder histology inflammatory score. Format: in vivo. The procedure:
Animals: Female Sprague-Dawley rats (225-250 g) were purchased from Charles River Laboratories. Animals were provided with food and water ad libitum. Intra-vesicular inoculation of protamine sulfate (PS) and LPS: Rats were anesthetized with sodium pentobarbital (65 mg/kg). The surface area around the urethral opening was swabbed with 70% isopropyl alcohol and Betadine. A lubricated sterile catheter (PE-50), handled with sterile gloves, was inserted into the bladder through the urethral opening. The catheter was connected to a 1 ml syringe via a 25 G needle and the bladder was emptied as described above. One group of rats was inoculated with 1 ml PS (10 mg/ml) in phosphate buffered saline (PBS) into the bladder via the catheter. After 45 minutes, the bladders were emptied, washed with PBS, then given a second treatment with 1 ml LPS (750 μg/ml) in PBS for 30 minutes. […]
The parameters of inflammation measured were: increased venous blood vessel size and volume (venous congestion), edema, cellular infiltration, and epithelial damage. […] The parameters were measured by a blinded observer using a five point score with 0 being the least severe and 5 being the most severe. A total inflammatory score was calculated for each rat by adding together the scores of the four inflammatory parameters. A mean total inflammatory score was calculated for each group. […]

For `C[S+](C)[O-]` [DMSO, dimethylsulfoxide], the “average length of response” value in the test on interstitial cystitis (instillation into the bladder for six to eight weeks) was “six”. Also, the response rate in the test with interstitial cystitis (instillation into the bladder for six to eight weeks, placebo 18%) is 53%.

Take `Nc1ccc(O)c(C(=O)O)c1` [saline + 5ASA, 5-aminosalicylic acid]: the “Mean Inflammatory Score (±SEM)” value in test [1] (agent 1 ml intravesical 1 day after PS/LPS, sacrifice day 5 post inoculation, total of four parameters each scored 0-5, saline control 12.7 (±1.5)) is given as 7.9 (±1.8). For the same molecule, the “% reduction of inflammation from saline treated control” value in test [1] (from mean inflammatory score, day 5 post inoculation) came to 37.5%.

On to oxychlorosene sodium, for which the “results relative to instillation of DMSO” value in the test with interstitial cystitis (Messing et al. 1978) is “Equivalent results”.
